Results taken from PubChem BioAssay AID1963841 (Molecular Pharmacology Branch, DTP, NCI, 2024).
pIC50: −log10 of the molar value. Several values for one entry are separate records, joined by “and”; a condition that tells them apart may be missing. Equal values may be shown once.

Test system: 439559-082-T-J2-PDC spheroid viability
Experiment: Anticancer human tumor 439559-082-T-J2-PDC patient-derived colon adenocarcinoma cell line growth inhibition [POLQ]
Details: spheroids with HUVEC and MSC; for viability, T/C: stronger effect = lower value
Method: Multicellular complex tumor spheroid response to Polymerase (POL) inhibitors (novobiocin, ART-558, RP6685) in combination with a variety of drugs and investigational agents in selected tumor cell lines
The POL inhibitors (novobiocin, ART-558, and RP6685) were evaluated both individually and in combination with standard of care and investigational anticancer small molecules within a complex spheroid model of solid tumors. . Complex spheroids include a stromal component modeled by human endothelial cells (HUVEC) and fibroblasts modeled by human mesenchymal stem cells (MSCs). The concentration ranges selected for each drug and investigational agent were based upon clinically achievable concentrations if the clinical Cmax of the agent was known.
Compounds. The drugs and investigational agents: novobiocin (NSC847541), ART-558 (NSC835418), RP-6685 (NSC848927), peposertib (NSC802822), ceralasertib (NSC780249), elimusertib (NSC800525), camonsertib (NSC841442), AZD-1390 (NSC803789), olaparib (NSC753686), talazoparib (NSC767125), rucaparib (NSC756644), sotorasib (NSC818433), MRTX-1133 (NSC836407), SN-38 (NSC673596), topotecan (NSC609699), epotoside (NSC141540), doxorubicin (NSC123127), gemcitabine (NSC613327), 5-fluorouracil (NSC19893), paclitaxel (NSC125973), vemurafenib (NSC761431), MSA-2 (NSC828583), SN-011 (NSC837082), adavosertib (NSC754352), prexasertib (NSC758257), carboplatin (NSC241240) and oxaliplatin (NSC266046), were obtained from the National Cancer Institute (NCI) Developmental Therapeutics Program Chemical Repository (21). The FDA-approved anticancer drug set is available from the Developmental Therapeutics Program at https://dtp.cancer.gov/organization/dscb/obtaining/. […] The stock solutions were prepared in dimethyl sulfoxide (DMSO, Sigma-Aldrich, St. Louis, MO, cat. D2650), except for the platinum compounds which were prepared in saline (Quality Biological, Gaithersburg, MD, cat. 114-055-101), at 800-fold the tested concentration and stored at -70 degrees C prior to their use. All drugs and investigational agents were tested over a range starting from a high concentration at or near the clinical Cmax and decreasing in half-log increments. If the clinical Cmax for an agent had not been determined, the highest concentration tested was 10 microM, except for SN-38, which was tested at a high concentration of 1 microM.
Cell Culture. All cells were maintained in an incubator at 37 degrees C and 5% CO2 with 95% humidity. The PDC lines were cultured according to standard operating procedures established by the NCI PDMR (https://pdmr.cancer.gov). Table 3 of the manuscript, lists the cell lines along with the number of the three cell types plated to form the mct-spheroids and media for tumor cell growth. After thawing, all PDC lines, except 997537-175-T-J1-PDC and 415267-285-R-J2-PDC, were cultured in Matrigel-coated flasks prepared with a working solution of 1X Ham's F-12 nutrient mix, without supplementation (Thermo Fisher Scientific, cat. 11765054), 100 U/mL penicillin-streptomycin (Thermo Fisher Scientific, cat. 15140122), and 2.5% Matrigel (Corning Inc., Corning, NY, cat. 354248) for the first three passages. The two PDC lines 997537-175-T-J1-PDC and 415267-285-R-J2-PDC were cultured on uncoated flasks. The 857933-349-R-J2-PDC line was cultured in 6C/Colon 1B media containing advanced DMEM/F-12 (Thermo Fisher Scientific, cat. 12634028), 10 mM HEPES (Thermo Fisher Scientific, cat. 15630080), 1X GlutaMAX supplement (Thermo Fisher Scientific, cat. 35050061), 0.1 mg/mL primocin (InvivoGen, San Diego, CA, cat. ant-pm-2), 10% defined fetal bovine serum, heat inactivated (HyClone Laboratories Inc., Logan, UT, cat. SH30070.03HI), 50% L-WRN conditioned media (ATCC, cat. CRL-3276), 1.25 mM N-Acetyl-L-cysteine (Sigma-Aldrich, cat. A9165), 10 mM nicotinamide (Sigma-Aldrich, cat. N0636), 1X B-27 supplement (Thermo Fisher Scientific, cat. 17504044), 1X N-2 supplement (Thermo Fisher Scientific, cat. […]
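Also: spheroids exposed to compounds for seven days before readout.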
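For viability, T/C in this document: 100% = DMSO vehicle control viability.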

Structure (SMILES): CNCc1ccc(-c2[nH]c3cc(F)cc4c3c2CCNC4=O)cc1
- viability, T/C (compound 0.0316 µM): 95.3% and 101% and 103%
- viability, T/C (compound 0.1 µM): 100% and 103% and 95.7%
- viability, T/C (compound 0.316 µM): 102% and 96.3% and 92.9%
- viability, T/C (compound 1 µM): 98.9% and 111% and 95.9%
- viability, T/C (compound 3.16 µM): 108% and 124% and 107%
- viability, T/C (compound 10 µM): 94.3% and 101% and 108%
- pIC50 (curve of compound): < 5.00

Structure (SMILES): COc1ccc([C@@H](O)c2cc(-c3ncnc4cc(N5CCOCC5)ccc34)c(F)cc2Cl)nn1 + COC1C(OC(N)=O)C(O)C(Oc2ccc3c(O)c(NC(=O)c4ccc(O)c(CC=C(C)C)c4)c(=O)oc3c2C)OC1(C)C
- pIC50 (curve of first compound, second compound 0.0316 µM): < 5.00
- pIC50 (curve of first compound, second compound 0.1 µM): < 5.00
- pIC50 (curve of first compound, second compound 0.316 µM): < 5.00
- pIC50 (curve of first compound, second compound 1 µM): < 5.00
- pIC50 (curve of first compound, second compound 3.16 µM): < 5.00
- pIC50 (curve of first compound, second compound 10 µM): < 5.00
- viability, T/C (second compound 0.0316 µM, first compound 0.0316 µM): 101%
- viability, T/C (second compound 0.0316 µM, first compound 0.1 µM): 96.5%
- viability, T/C (second compound 0.0316 µM, first compound 0.316 µM): 99.1%
- viability, T/C (second compound 0.0316 µM, first compound 1 µM): 95.1%
- viability, T/C (second compound 0.0316 µM, first compound 3.16 µM): 90.7%
- viability, T/C (second compound 0.0316 µM, first compound 10 µM): 77.3%
- viability, T/C (second compound 0.1 µM, first compound 0.0316 µM): 109%
- viability, T/C (second compound 0.1 µM, first compound 0.1 µM): 96.4%
- viability, T/C (second compound 0.1 µM, first compound 0.316 µM): 93.5%
- viability, T/C (second compound 0.1 µM, first compound 1 µM): 95.1%
- viability, T/C (second compound 0.1 µM, first compound 3.16 µM): 83.3%
- viability, T/C (second compound 0.1 µM, first compound 10 µM): 71.7%
- viability, T/C (second compound 0.316 µM, first compound 0.0316 µM): 107%
- viability, T/C (second compound 0.316 µM, first compound 0.1 µM): 101%
- viability, T/C (second compound 0.316 µM, first compound 0.316 µM): 92.6%
- viability, T/C (second compound 0.316 µM, first compound 1 µM): 91.2%
- viability, T/C (second compound 0.316 µM, first compound 3.16 µM): 89.9%
- viability, T/C (second compound 0.316 µM, first compound 10 µM): 74.3%
- viability, T/C (second compound 1 µM, first compound 0.0316 µM): 100%
- viability, T/C (second compound 1 µM, first compound 0.1 µM): 94%
- viability, T/C (second compound 1 µM, first compound 0.316 µM): 92.9%
- viability, T/C (second compound 1 µM, first compound 1 µM): 87.9%
- viability, T/C (second compound 1 µM, first compound 3.16 µM): 86.5%
- viability, T/C (second compound 1 µM, first compound 10 µM): 70.9%
- viability, T/C (second compound 3.16 µM, first compound 0.0316 µM): 96.6%
- viability, T/C (second compound 3.16 µM, first compound 0.1 µM): 91.8%
- viability, T/C (second compound 3.16 µM, first compound 0.316 µM): 97.7%
- viability, T/C (second compound 3.16 µM, first compound 1 µM): 92%
- viability, T/C (second compound 3.16 µM, first compound 3.16 µM): 82.3%
- viability, T/C (second compound 3.16 µM, first compound 10 µM): 79.5%
- viability, T/C (second compound 10 µM, first compound 0.0316 µM): 102%
- viability, T/C (second compound 10 µM, first compound 0.1 µM): 99.9%
- viability, T/C (second compound 10 µM, first compound 0.316 µM): 86.5%
- viability, T/C (second compound 10 µM, first compound 1 µM): 86.4%
- viability, T/C (second compound 10 µM, first compound 3.16 µM): 78%
- viability, T/C (second compound 10 µM, first compound 10 µM): 76.5%
